Results from patent US7192932B1, “Use of immunomodulating agents” (Lauras AS, priority 1997, dated 2007).

Tests used:
PBMC = details: cited from earlier work
PKAII isozymes = details: cited from earlier work
PKAI isozymes = details: cited from earlier work
[1] = test system: peripheral blood CD3+ T cells; assay: TCR/CD3 (anti-CD3) stimulated T cell proliferation, [3H]-thymidine incorporation; format: cell-based, human; details: T cells from normal blood donors, FIG. 3A
Description: (§1) Human peripheral blood CD3+ T cells were purified by negative selection from 50 ml of heparin-treated blood from normal healthy donors (Ullevaal University Hospital Blood Center, Oslo. Norway) or patients. Briefly, peripheral blood mononuclear cells were isolated by density gradient (Lymphoprep, NycoMed, Oslo, Norway) centrifugation followed by negative selection using monodisperse magnetic beads directly coated with antibodies to CD14 and CD19 and rat anti-mouse IgG beads coated with antibodies to CD56 and a magnet. Magnetic beads were all from Dynal (Oslo, Norway, cat. no. 111.12, 111.04, and 110.11. respectively) whereas anti-CD56 antibody was from Pharmingen (San Diego, Calif., cat. no. 31660.d). All steps were performed at 4° C.
as §1, with “Peripheral blood” for “Human peripheral blood”, “Center, Oslo,” for “Center, Oslo.”, “selection using,” for “selection using”, “and 110.11,” for “and 110.11.”, “Calif., eat.” for “Calif., cat.”
Proliferation assays were performed by incubation of 0.75×10^6 CM+ T cells/ml in a 100 μl volume in that-bottom 96-well microtiter plates. Activation was achieved by subsequent addition of monodisperse magnetic beads coated with sheep anti-mouse IgG (Dynal. cat. no. 110.02) at a cell:bead ratio of 1:1 followed by addition of antiCD3 (clone SpvT3b) at a final dilution of 1:125,000 for the experiments shown. The optimal concentration of antibody was titrated carefully in the initial setup and parallel experiments at several different dilutions of antibody was always performed. Proliferation was analyzed by incubating, cells for 72 hours during which [^3H]thymidine was included for the last 16 hours. Cells were washed and harvested onto filters using a Scatron harvester (Suffolk, UK) and subsequently analyzed by β-scintillation counting. cAMP analogs, when used, were added 30 min prior to activation by addition of […] antibodies. 8-CPT-cAMP was from Sigorna (St. Louis, Mo.) and Sp- and Rp-8-Br-cAMPS were from BioLog Life Science Company (Bremen, Germany) and were all dissolved to concentrations of 4 to 10 mM in PBS and concentrations calculated using the extinction coefficients given by the manufacturer.

[2] = test system: peripheral blood CD3+ T cells; assay: TCR/CD3 stimulated proliferation of liposome-transfected CD3+ T cells treated with 8-CPT-cAMP; format: cell-based, human; details: for Effect of peptide on cAMP dependent inhibition of T cell proliferation: increasing concentrations (25 to 100 μM), 8-CPT-cAMP 6.25 μM, FIG. 9
Description: FIG. 8. Reversal of cAMP-mediated inhibition of TUR/CD3 stimulated T cell proliferation by the use of ribozyme to the RIα subunit of protein kinase A type I. TCR/CD3 stimulated proliferation of peripheral blood CD3+ T cells from normal healthy blood donor following treatment with liposomes alone (mock) or with liposomes and RIα ribozyme (RIα rbz, 10 μM) in the absence (solid bars) and presence (open bars) of 8-CPT-cAMP (12,5 μM).
FIG. 9. Reversal of cAMP-mediated inhibition of TCR/CD3 stimulated T cell proliferation by the use of competitor peptide to compete the TCR/CD3 associated anchoring of RIα subunit of protein kinase A type I in T cells. TCR/CD3 stimulated proliferation of peripheral blood CD3+ T cells from normal healthy blood donor following treatment with liposomes alone (mock) or with increasing concentrations (25 to 100 μM) of a competitor peptide (Ht-31) that competes anchoring, to PKA type II or a control peptide (Ht31-P).
FIG. 10. TCR/CD3 stimulated proliferation of peripheral blood CD3+ T cells in the presence of increasing, concentrations of 8-CPT-cAMP. Normalized levels of proliferation of T cells mock transfected with liposomes only (solid circles, continuous line) or incubated with liposomes and Ht31 peptide (35 μM) to compete anchoring of protein kinase A type I (open circles, dotted line) was assessed as [^3H]-thymidine incorporation after 48 h during which [^3H]-thymidine was added for the last 18 h. Note: right shift of the IC50 (arrow) from 1,8 to 4,8 μM in the presence of […].
When transfected as synthetic RNA ribozyme or as a synthetic RNA ribozyme stabilized by incorporation of 2-deoxycytosine and 2-deoxy-uracil analogs into peripheral blood CD3+ T cells, the ribozyme reduced levels of RIα protein to approximately 20% of control levels by removing the RIα mRNA. By this strategy, the majority of protein kinase A type 1 was removed from the T cells. We then assessed the immune responsiveness of CD3+ T cells transfected with ribozyme compared to control (mock) transfected T cells measured as T cell proliferation after activation of T cells by stimulation of the T cell receptor/CD3 complex (TCR/CD3). In order to simulate a T cell dysfunction as that of HIV infection, with elevated levels of cAMP and increased activation of protein kinase A type 1, we treated normal T cells with low dose (12.5 around IC50) of the cAMP analog 8-(4-chlorophenyl)-thio-cAMPS (8-CPT-cAMP). […] For in vivo use pretreatment of ribozymes to allow cellular uptake or introduction into cells as minigenes will be necessary.
We incubated blood CD3+ T cells with increasing concentrations of Ht31 (SEQ. ID. NO 2) peptide. In order to facilitate uptake, cells were treated with liposomes in the presence or absence of-peptide. The optimal concentrations of DOTAP liposomes and anti-CD3 antibody were titrated carefully in order to maintain the membrane stability and normal TCR/CD3-dependent activation of the T cells. Cells were incubated for 20 hours with DOTAP/peptide and incubations continued in the absence (solid bars) or presence of 8-CPT-cAMP (6.25 μM, hatched bars) and activated to proliferation by stimulation of TCR/CD3 T cell immune responsiveness was assessed as [3H]thymidine incorporation.
Next, the effect of the competitor peptide (Ht-31, 35 μM) on T cell proliferation was examined in the presence of increasing concentrations of 8-CPT-cAMP and compared to mock transfected cells treated with the same concentrations of 8-CPT-cAMP (FIG. 10). As shown previously for normal peripheral blood T cells. […] Compared to the left-shifted curves observed with T cells from HIV-infected patients or patients with CIV due to elevated levels of endogenous cAMP activating PKA type 1, the right-shift observed here would be expected to normalize the situation in patients.

[3] = biological target: RIα subunit of cAMP-dependent protein kinase A type I (human, UniProt P10644 1-381); assay: cell-based or functional assay
RIα subunit of cAMP-dependent protein kinase A type I, sequence (P10644 whole entry): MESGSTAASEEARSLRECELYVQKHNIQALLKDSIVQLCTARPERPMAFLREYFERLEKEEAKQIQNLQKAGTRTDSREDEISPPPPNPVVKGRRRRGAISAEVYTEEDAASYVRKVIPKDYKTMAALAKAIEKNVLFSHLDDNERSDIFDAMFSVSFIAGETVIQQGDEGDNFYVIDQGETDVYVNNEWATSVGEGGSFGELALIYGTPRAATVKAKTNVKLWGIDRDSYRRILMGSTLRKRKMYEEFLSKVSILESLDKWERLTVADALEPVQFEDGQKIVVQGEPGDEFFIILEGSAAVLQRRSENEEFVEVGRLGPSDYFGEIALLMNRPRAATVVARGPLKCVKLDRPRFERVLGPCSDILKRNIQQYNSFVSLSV

**Q.** Which “Effect on cell proliferation” value (PBMC; PBMC) does the source give for C[C@H]1O[C@@H](n2cnc3c(N)ncnc32)C[C@@H]1O [ddAdo, 2′,5′ dideoxyadenosine] here?
**A.** The value was “increased the cell proliferation”.

**Q.** And the “Effect on cellular cAMP levels” value (PBMC; PBMC)?
**A.** Its value is “reduced cellular cAMP levels”.

**Q.** And the Effective concentrations (PBMC; higher concentrations suppressive or without further effect)?
**A.** The Effective concentrations was about 6 ng/mL.

**Q.** For Nc1ncnc2c1ncn2[C@@H]1O[C@@H]2CO[P@@](O)(=S)O[C@H]2[C@H]1O [Rp-cAMPS, Rp-cAMP-phosphorothioate], which “Mode of action on PKAII isozymes” value (PKAII isozymes) is on record?
**A.** Its value is “partial agonist”.

**Q.** What about the “Mode of action on PKAI isozymes” value (PKAI isozymes) of the same molecule?
**A.** The value was “full antagonist”.

**Q.** For Nc1ncnc2c1nc(Br)n2[C@@H]1O[C@@H]2COP(O)(=S)O[C@@H]2C1O (some centres unmarked) [Sp-8-Br-cAMPS, Sp-8-Bromo-cAMP-phosphorothioate, reference compound], which “Effect of cAMP agonist on TCR/CD3-stimulated proliferation” value [1] is on record?
**A.** The value was “inhibited”.

**Q.** What does the source list for “H2N-Asp-Leu-Ile-Glu-Glu-Ala-Ala-Ser-Arg-Ile-Val-Asp-Ala-Val-Ile-Glu-Gln-Val-Lys-Ala-Ala-Gly-Ala-Tyr-COOH (H-DLIEEAASRIVDAVIEQVKAAGAY-OH) [Ht31]”?
**A.** Effect of peptide on 8-CPT-cAMP inhibition curve ([2]; 35 μM peptide, FIG. 10): right-shifted inhibition curve; Effect of peptide on cAMP dependent inhibition of T cell proliferation [2]: reduced sensitivity to cAMP; Effect of peptide on cAMP dependent inhibition of T cell proliferation ([2]; listed as Ht-31): reversed the cAMP dependent inhibition

**Q.** What does the source list for H-DLIEEAASRIVDAVIEQVKAAGAY-OH [Ht31 competitor peptide (amino acids 493-515 of the A-kinase anchoring protein (AKAP) Ht31)]?
**A.** IC50 of 8-CPT-cAMP for inhibition of TCR/CD3 stimulated T cell proliferation with Ht-31 (35 µM); mock transfected cells had an IC50 around 1.8 µM [3]: 4.8 µM; TCR/CD3 stimulated proliferation of CD3+ T cells ([3H]thymidine incorporation) in the presence of 8-CPT-cAMP (6.25 µM), peptide delivered with DOTAP liposomes [3]: 3 fold
